Experimental data: patent publication US20080108612A1, “Use of Purine Derivatives as HSP90 Protein Inhibitors” (AVENTIS PHARMA S.A., priority 2005, published 2008)
Counter-ions that a name gives are not always drawn.

Tested on: not given
Assay: not given
Conditions: not given

In the case of Cl.c1ccc(CN2CCN(c3ncnc4[nH]cnc34)CC2)cc1 [Example 1], the melting point is reported as 258 to 260 °C.

Molecular target: Hsp82 (Saccharomyces cerevisiae, UniProt P02829)
Assay: Inhibition of the ATPase activity of Hsp82 in the enzymatic coupling system (pyruvate kinase / lactate dehydrogenase)
Assay type: biochemical
Conditions: not given
Text: The formation of ADP due to the ATPase activity of Hsp82 was used to develop another method for evaluating the enzymatic activity of this enzyme by application of an enzymatic coupling system involving pyruvate kinase (PK) and lactate dehydrogenase (LDH). In this kinetic-type spectrophotometric method, the PK catalyzes the formation of ATP and of pyruvate from phosphoenol pyruvate (PEP) and from the ADP produced by Hsp82. The pyruvate formed, which is a substrate for LDH, is then converted to lactate in the presence of NADH. In this case, the decrease in NADH concentration, measured by the decrease in absorbance at the wavelength of 340 nm, is proportional to the concentration of ADP produced by Hsp82.
The products tested were incubated in a reaction volume of 100 μl of buffer composed of 100 mM Hepes-NaOH (pH 7.5), 5 mM MgCl2, 1 mM DTT, 150 mM KCl, 0.3 mM NADH, 2.5 mM PEP and 250 μM ATP. This mixture was preincubated at 37° C. for 30 min before adding 3.77 units of LDH and 3.77 units of PK. The reaction was initiated by addition of the product to be evaluated, in variable concentrations, and of Hsp82, at the concentration of 1 μM. Measurement of the enzymatic activity of Hsp82 was then carried out, continuously, in a microplate reader at 37° C., at the wavelength of 340 nm. The initial rate of the reaction was obtained by measuring the slope of the tangent at the origin of the curve recorded. The enzymatic activity was expressed in μM of ADP formed per minute. The effect of the various products tested was expressed as a percentage inhibition of the ATPase activity.
The inhibitory activities on the ATPase activity of Hsp82 obtained with the products of the invention in the enzymatic coupling system are given in the table below, according to the criteria below for inhibition of the ATPase activity of Hsp82: […]

Hsp82, sequence (P02829 whole entry): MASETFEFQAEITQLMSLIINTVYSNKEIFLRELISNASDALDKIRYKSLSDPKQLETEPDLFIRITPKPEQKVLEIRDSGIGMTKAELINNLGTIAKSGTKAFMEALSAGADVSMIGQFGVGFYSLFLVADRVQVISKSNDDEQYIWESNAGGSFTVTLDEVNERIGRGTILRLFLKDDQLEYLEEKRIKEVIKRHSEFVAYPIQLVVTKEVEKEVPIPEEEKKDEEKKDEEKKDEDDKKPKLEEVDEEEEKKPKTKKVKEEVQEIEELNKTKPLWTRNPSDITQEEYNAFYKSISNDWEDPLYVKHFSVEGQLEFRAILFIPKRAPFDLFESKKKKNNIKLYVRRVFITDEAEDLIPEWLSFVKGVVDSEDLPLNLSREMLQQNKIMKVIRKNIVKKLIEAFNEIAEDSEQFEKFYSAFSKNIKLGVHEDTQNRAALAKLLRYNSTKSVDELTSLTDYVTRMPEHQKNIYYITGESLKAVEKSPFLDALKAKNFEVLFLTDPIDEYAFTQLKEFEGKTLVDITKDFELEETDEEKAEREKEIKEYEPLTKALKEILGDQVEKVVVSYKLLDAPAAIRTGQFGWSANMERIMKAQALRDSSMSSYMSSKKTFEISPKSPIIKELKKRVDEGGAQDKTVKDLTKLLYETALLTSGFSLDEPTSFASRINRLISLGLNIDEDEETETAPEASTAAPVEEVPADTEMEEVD

For CC(Nc1nc(Cl)nc2[nH]cnc12)c1ccccc1 (racemic) [Example 3, 2-chloro-6-(1(R,S)-phenylethyl)amino-1H-purine], the IC50 was 10 to 100 µM.

Same assay, conditions: ATPase activity of Hsp82, PK/LDH enzymatic coupling system, 1 μM Hsp82, 250 μM ATP, 37° C., absorbance at 340 nm; read-out: IC50

Cl.c1ccc(CN2CCN(c3ncnc4[nH]cnc34)CC2)cc1 [Example 1] and c1ccc(N2CCN(c3ncnc4[nH]cnc34)CC2)nc1 [Example 10, 6-[4-(pyridin-2-yl)piperazinyl]-1-H-purine monohydrochloride] fall in the same range of IC50: 1 to 10 µM for the first, 1 to 10 µM for the second.

Clc1nc(OCc2ccccc2)c2nc[nH]c2n1 [Example 2, 2-chloro-6-phenylmethyloxy-1H-purine] and Clc1nc(NCCNCc2ccccc2)c2nc[nH]c2n1 [Example 6] fall in the same range of IC50: 10 to 100 µM for the first, 10 to 100 µM for the second.

First: Clc1nc(NCCN2CCOCC2)c2nc[nH]c2n1 [Example 4, 2-chloro-6-[2-(morpholin-4-yl)ethylamino]-1H-purine]
Second: c1nc(N2CCCCC2)c2nc[nH]c2n1 [Example 9, 6-(piperidin-1-yl)-1H-purine]
The IC50 of the first is higher: 10 to 100 µM for the first, 1 to 10 µM for the second. The second is the more potent here.

c1csc(CNc2[nH]cnc3ncnc2-3)c1 [Example 5, 6-(thiophen-2-yl)methylamino-1H-purine] and CCOC(=O)CC1CCN(c2ncnc3[nH]cnc23)CC1 [Example 8, 6-[4-(ethyloxycarbonyl)methylpiperidin-1-yl]-1H-purine] fall in the same range of IC50: 10 to 100 µM for the first, 10 to 100 µM for the second.
